What follows are compounds tested against T1, Signal transducer and activator of transcription 6 (Homo sapiens, UniProt P42226) (assay: Inhibition of IL-4 induced STAT6 signaling in human HepG2 cells harboring pRL-EF1alpha, pGL3-TK-7xN4 and TOPO-Stat6 plasmid assessed as luciferase activity incubated for 24 hrs).
T1 sequence (P42226 whole entry): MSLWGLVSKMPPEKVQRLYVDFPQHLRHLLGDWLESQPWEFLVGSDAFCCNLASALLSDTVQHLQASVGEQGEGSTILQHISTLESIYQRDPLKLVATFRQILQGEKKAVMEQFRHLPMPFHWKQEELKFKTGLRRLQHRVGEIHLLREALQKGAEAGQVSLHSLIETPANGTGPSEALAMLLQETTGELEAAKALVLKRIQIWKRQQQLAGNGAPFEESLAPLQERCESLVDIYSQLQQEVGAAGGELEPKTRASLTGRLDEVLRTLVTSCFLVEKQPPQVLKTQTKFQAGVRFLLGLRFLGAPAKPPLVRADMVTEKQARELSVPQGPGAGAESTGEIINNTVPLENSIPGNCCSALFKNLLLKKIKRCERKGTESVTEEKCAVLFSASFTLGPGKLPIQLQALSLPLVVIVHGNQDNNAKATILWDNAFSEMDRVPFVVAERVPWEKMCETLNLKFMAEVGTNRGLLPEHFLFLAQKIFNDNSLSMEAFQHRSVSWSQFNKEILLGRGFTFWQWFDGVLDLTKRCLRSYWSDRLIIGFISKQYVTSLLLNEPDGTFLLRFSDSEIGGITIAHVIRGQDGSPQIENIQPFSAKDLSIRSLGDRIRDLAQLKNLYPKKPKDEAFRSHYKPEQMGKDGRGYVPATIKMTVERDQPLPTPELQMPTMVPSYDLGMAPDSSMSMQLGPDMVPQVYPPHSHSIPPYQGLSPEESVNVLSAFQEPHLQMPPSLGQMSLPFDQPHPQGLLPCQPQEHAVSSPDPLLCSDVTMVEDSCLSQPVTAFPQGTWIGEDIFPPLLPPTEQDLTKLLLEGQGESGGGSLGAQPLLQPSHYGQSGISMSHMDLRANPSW

C/C1=C\C[C@H](O)[C@H](C)[C@@H](C)OC(=O)Cc2c(Cl)c(O)cc(O)c2C1=O and C/C1=C/C[C@H](O)[C@H](C)[C@@H](C)OC(=O)Cc2c(Cl)c(O)cc(O)c2C1=O are within 1.5-fold of each other in IC50: 50 nM for the first, 64 nM for the second.

Compared with C/C1=C\C[C@H](O)[C@H](C)[C@H](C)OC(=O)Cc2c(Cl)c(O)cc(O)c2C1=O, C/C1=C/C[C@@H](O)[C@H](C)[C@@H](C)OC(=O)Cc2c(Cl)c(O)cc(O)c2C1=O is 2.8-fold lower in IC50: 200 nM for the first, 72 nM for the second.

For C/C1=C\C[C@@H](O)[C@H](C)[C@H](C)OC(=O)Cc2c(Cl)c(O)cc(O)c2C1=O, the IC50 was 1000 nM.

From BindingDB's records for doi:10.1021/acs.jnatprod.4c00082 (Johannes Gutenberg-University, 2024)
